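Step 1: Grow cells in 96-well plates. Step 2: Expose to compound for 48 hours at 5 concentrations. Step 3: Interpolate endpoints linearly; if unreached, use highest concentration. Abbreviation: GI50, concentration required for 50% inhibition of growth.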 Activity calls are given as the source filed them. Cut-off read from the data, not from the text of the source: active = GI50 up to about 1.1 µM and inactive = higher. Non-standard residues stand in square brackets, D forms with d. Residues, ends and D or L forms follow the SMILES beside them. ξ: configuration not given here. *: point of attachment. ξNMeF = CNC(Cc1ccccc1)C(=O)O; NMeV = CN[C@H](C(=O)O)C(C)C; Boc = CC(C)(C)OC(=O)*; OBn = c1ccc(CO*)cc1
Assays:
Assay in all cases: DTP human tumour cell line panel, 48 h
A549 = test system: A549
ACHN = test system: ACHN
EKVX = test system: EKVX
HOP-62 = test system: HOP-62
KM12 = test system: KM12
M14 = test system: M14
NCI-H460 = test system: NCI-H460
NCI-H522 = test system: NCI-H522
SF-268 = test system: SF-268
SK-MEL-28 = test system: SK-MEL-28
SK-MEL-2 = test system: SK-MEL-2
SK-OV-3 = test system: SK-OV-3
SW-620 = test system: SW-620
UACC-257 = test system: UACC-257
UO-31 = test system: UO-31
A498 = test system: A498

Measured: GI50

O=C1c2ccccc2C(=O)C2C1C1C(=O)c3ccccc3C(=O)C21 (centres undefined)
inactive: A549 > 100 µM | ACHN > 100 µM | EKVX > 100 µM | HOP-62 > 100 µM | KM12 49.7 µM | M14 > 100 µM | NCI-H460 > 100 µM | NCI-H522 26.2 µM | SF-268 78.2 µM | SK-MEL-28 > 100 µM | SK-MEL-2 > 100 µM | SK-OV-3 > 100 µM | SW-620 > 100 µM | UACC-257 > 100 µM | UO-31 > 100 µM

CC(C)[C@@H](C(=O)N(C)[C@H](C(=O)N1CCC[C@H]1C(=O)OCc1ccccc1)C(C)C)N(C)C(=O)C(Cc1ccccc1)N(C)C(=O)[C@H](NC(=O)OC(C)(C)C)C(C)C (some centres undefined) (Boc-[dV][ξNMeF][NMeV][NMeV]P-OBn)
inactive: A498 > 31.6 µM | A549 > 31.6 µM | EKVX > 31.6 µM | HOP-62 > 31.6 µM | KM12 > 10 µM | NCI-H460 > 31.6 µM | SF-268 > 31.6 µM | SK-MEL-28 > 31.6 µM | SK-MEL-2 > 31.6 µM | SK-OV-3 > 31.6 µM | SW-620 > 31.6 µM | UACC-257 > 31.6 µM | UO-31 > 31.6 µM

CN1Nc2ccccc2CC1=O
inactive: A498 > 100 µM | A549 > 100 µM | ACHN > 100 µM | EKVX > 100 µM | HOP-62 > 100 µM | KM12 > 100 µM | M14 > 100 µM | NCI-H460 > 100 µM | SF-268 > 100 µM | SK-MEL-28 > 100 µM | SK-MEL-2 > 100 µM | SK-OV-3 > 100 µM | SW-620 > 100 µM | UACC-257 > 100 µM | UO-31 > 100 µM

Cc1nc2nn(Cc3ccccc3)cc2c(=O)o1
inactive: A498 > 100 µM | A549 > 100 µM | ACHN > 100 µM | EKVX > 100 µM | HOP-62 > 100 µM | KM12 > 100 µM | NCI-H460 > 100 µM | SF-268 > 100 µM | SK-MEL-2 > 100 µM | SW-620 > 100 µM | UACC-257 > 100 µM | UO-31 > 100 µM

CC1(C)C2=CCCC(=O)[C@@]2(C)CC[C@@H]1O
inactive: A549 > 100 µM | ACHN > 100 µM | EKVX > 100 µM | HOP-62 > 100 µM | KM12 > 100 µM | M14 > 100 µM | NCI-H460 > 100 µM | NCI-H522 > 100 µM | SF-268 > 100 µM | SK-MEL-28 > 100 µM | SK-MEL-2 5.97 µM | SK-OV-3 > 100 µM | SW-620 > 100 µM | UACC-257 > 100 µM | UO-31 > 100 µM

Cc1ccc(S(=O)(=O)NNC(=O)c2sc(-c3nc(C)c(C(=O)NNS(=O)(=O)c4ccc(C)cc4)s3)nc2C)cc1
inactive: A498 > 100 µM | A549 > 100 µM | ACHN 97.9 µM | EKVX > 100 µM | HOP-62 > 100 µM | KM12 > 100 µM | M14 > 100 µM | NCI-H460 > 100 µM | SF-268 > 100 µM | SK-MEL-28 > 100 µM | SK-MEL-2 > 100 µM | SK-OV-3 > 100 µM | SW-620 > 100 µM | UACC-257 > 100 µM | UO-31 28.8 µM

O=c1cc(/C=C/c2ccccc2)c2ccc(O/C(=C\c3ccccc3)c3nc4ccccc4c(=O)o3)cc2o1
inactive: A498 34.1 µM | A549 30.4 µM | ACHN 18.5 µM | EKVX 23.7 µM | HOP-62 28 µM | KM12 15.7 µM | M14 18.1 µM | NCI-H460 23.3 µM | SF-268 11.8 µM | SK-MEL-28 13.8 µM | SK-MEL-2 25.6 µM | SK-OV-3 39.4 µM | SW-620 37.5 µM | UACC-257 28.9 µM

O=C(N/C(=C\c1ccccc1Cl)c1nc2ccccc2[nH]1)c1ccccc1
inactive: A549 26.7 µM | ACHN 30.5 µM | EKVX 21.3 µM | KM12 32.5 µM | M14 19.8 µM | NCI-H522 22.8 µM | SF-268 32.7 µM | SK-MEL-28 40.9 µM | SK-MEL-2 23.5 µM | SK-OV-3 31.6 µM | SW-620 27.5 µM | UO-31 11.2 µM

CC(=O)OCC1OC(n2c(-c3ccc(C)cc3)cc(-c3ccccc3)c(C#N)c2=O)C(OC(C)=O)C(OC(C)=O)C1OC(C)=O (centres undefined)
inactive: A549 > 100 µM | ACHN > 100 µM | EKVX > 100 µM | HOP-62 > 100 µM | KM12 > 100 µM | M14 > 100 µM | NCI-H460 > 100 µM | NCI-H522 82.6 µM | SF-268 > 100 µM | SK-MEL-28 > 100 µM | SK-MEL-2 > 100 µM | SK-OV-3 > 100 µM | SW-620 > 100 µM | UACC-257 > 100 µM | UO-31 > 100 µM

Nc1nc(=O)[nH]c2c1cnn2Cc1ccccc1
inactive: A498 > 100 µM | A549 > 100 µM | ACHN > 100 µM | EKVX > 100 µM | KM12 > 100 µM | M14 > 100 µM | NCI-H460 > 100 µM | SF-268 > 100 µM | SK-MEL-28 1.88 µM | SK-MEL-2 > 100 µM | SW-620 > 100 µM | UACC-257 > 100 µM | UO-31 > 100 µM

From ChEMBL document CHEMBL1201862, “PubChem BioAssay data set” (2004)
